Laboratory results as given in patent EP1803452A1, “ESTER DERIVATIVE AND PHARMACEUTICAL USE THEREOF” (Japan Tobacco, Inc., priority 2004, dated 2006).

Assays:
[1] = Metabolic stability test in liver S9; assay type: in vitro ADME; details: pH 7.4, human liver S9 2 mg protein/mL, LC/MS; for remaining at 10 min: unchanged form after 10 minutes at 37°C, read-out: Remaining rate in human liver S9 (%/10min); for remaining at 1 h: unchanged form after 60 minutes at 37°C, read-out: Remaining rate in human liver S9 (%/60min)
Procedure, shortened: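 Compound from DMSO solution was incubated at 37°C with human liver S9 (final 2 mg protein/mL) in 100 mM potassium phosphate pH 7.4 with an NADPH-regenerating system for 0, 10 and 60 minutes. Reactions were stopped with acetonitrile/0.1% formic acid. Unchanged compound was measured by LC/MS as remaining rate (%) relative to zero time.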

[2] = Stability test in buffer (pH 7.4); assay type: physicochemical; details: phosphate buffer/acetonitrile 7:3, 100 mM potassium phosphate buffer (pH 7.4) and acetonitrile 7:3 (v/v), LC/MS; for remaining at 10 min: 10 minutes at 37°C, read-out: Buf. remaining rate (%/10min); for remaining at 1 h: 60 minutes at 37°C, read-out: Buf. remaining rate (%/60min)
Procedure, shortened: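 Compound from DMSO solution incubated at 37°C in 100 mM potassium phosphate buffer/acetonitrile 7:3 (v/v) for 0, 10 and 60 min, then quenched with acetonitrile containing formic acid (final 0.1%). Unchanged compound in supernatant quantified by LC/MS; remaining rate (%) = amount at each time / amount at zero time × 100.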

[3] = Metabolic stability test in plasma; assay type: in vitro ADME, human; details: LC/MS; for remaining at 10 min: unchanged form after 10 minutes at 37°C in human plasma, read-out: Remaining rate in human plasma (%/10min); for remaining at 1 h: unchanged form after 60 minutes at 37°C in human plasma, read-out: Remaining rate in human plasma (%/60min)
Procedure, shortened: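 Compound in DMSO spiked into human, mouse or hamster plasma, incubated at 37°C for 0, 10 and 60 minutes, then quenched with acetonitrile/formic acid (final 0.1%). Unchanged compound in supernatant quantified by LC/MS; remaining rate (%) relative to time zero.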

[4] = molecular target: T1, Microsomal triglyceride transfer protein (MTP) from human small intestine microsome (Homo sapiens, UniProt P55157); experiment: Inhibition test of interliposomal triglyceride (TG) transfer activity by MTP; assay type: biochemical; details: purified MTP from human small intestine microsome, 14C-triolein donor/acceptor liposomes, 37 °C for 1.5 hours
T1 construct: Human small intestine microsome was dialyzed against 10 mM phosphate buffer; tissue Tissue Transforming Technologies, Inc; host or cells: Human small intestine microsomes, dialysed, centrifuged, and the supernatant purified on DEAE Sepharose (FPLC)
T1 sequence (P55157 19-894): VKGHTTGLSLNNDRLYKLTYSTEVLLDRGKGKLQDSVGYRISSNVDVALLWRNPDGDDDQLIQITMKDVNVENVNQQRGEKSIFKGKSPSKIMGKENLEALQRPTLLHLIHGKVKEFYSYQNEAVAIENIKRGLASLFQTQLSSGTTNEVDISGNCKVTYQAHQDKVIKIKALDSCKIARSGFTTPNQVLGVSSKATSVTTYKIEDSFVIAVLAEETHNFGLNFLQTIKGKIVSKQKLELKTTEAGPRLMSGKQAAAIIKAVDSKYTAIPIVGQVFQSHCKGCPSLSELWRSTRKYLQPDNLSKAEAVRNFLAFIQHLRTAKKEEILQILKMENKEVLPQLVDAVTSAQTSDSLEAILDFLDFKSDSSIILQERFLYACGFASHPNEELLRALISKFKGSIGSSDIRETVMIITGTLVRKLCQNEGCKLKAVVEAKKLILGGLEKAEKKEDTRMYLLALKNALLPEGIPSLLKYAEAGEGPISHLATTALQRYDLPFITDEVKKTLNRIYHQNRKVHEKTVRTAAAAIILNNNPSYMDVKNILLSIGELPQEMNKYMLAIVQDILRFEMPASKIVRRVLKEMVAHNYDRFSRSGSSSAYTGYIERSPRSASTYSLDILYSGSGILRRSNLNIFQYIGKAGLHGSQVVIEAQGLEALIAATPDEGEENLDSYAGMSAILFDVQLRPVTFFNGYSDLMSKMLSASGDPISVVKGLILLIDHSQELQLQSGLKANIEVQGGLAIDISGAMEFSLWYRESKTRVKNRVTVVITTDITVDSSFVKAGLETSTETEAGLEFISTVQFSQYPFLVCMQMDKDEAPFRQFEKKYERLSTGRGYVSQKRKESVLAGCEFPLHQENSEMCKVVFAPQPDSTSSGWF
T1 sequence (P07237 18-508 partner): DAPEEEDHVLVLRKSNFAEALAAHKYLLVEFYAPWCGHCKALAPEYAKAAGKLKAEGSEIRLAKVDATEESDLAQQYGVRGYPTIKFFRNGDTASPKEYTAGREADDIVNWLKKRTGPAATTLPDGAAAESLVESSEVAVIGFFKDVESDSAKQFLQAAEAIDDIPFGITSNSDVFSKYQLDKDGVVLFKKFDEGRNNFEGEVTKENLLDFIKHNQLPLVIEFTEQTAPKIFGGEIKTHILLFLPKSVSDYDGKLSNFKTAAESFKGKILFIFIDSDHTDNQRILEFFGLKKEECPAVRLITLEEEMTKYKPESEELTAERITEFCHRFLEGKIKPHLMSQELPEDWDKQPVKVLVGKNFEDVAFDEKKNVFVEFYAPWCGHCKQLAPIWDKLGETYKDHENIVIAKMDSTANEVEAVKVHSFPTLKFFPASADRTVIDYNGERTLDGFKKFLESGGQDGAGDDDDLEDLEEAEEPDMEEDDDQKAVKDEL
Source text: Firstly, in order to prepare the donor, there were volatilized under a stream of nitrogen gas a phosphatidylcholine solution containing phosphatidylcholine labeled with ^3H, a cardiolipin solution, and a triolein solution containing triolein labeled with ^14C (each solution had been already dissolved in an appropriate organic solvent), or in order to prepare the acceptor, there were volatilized under nitrogen flow a phosphatidylcholine solution containing phosphatidylcholine labeled with ^3H and a cardiolipin solution (each solution had been already dissolved in an appropriate organic solvent). An appropriate amount of a reaction buffer (15 mM Tris-HCl buffer containing 1 mM EDTA.Na2, 40 mM NaCl, and 0.5% (w/v) bovine serum albumin, pH 7.4) was added thereto to be emulsified. […] Each of the resulting supernatant was used for donor or acceptor.
Each radioactivity in the acceptor and the donor was measured by liquid scintillation counter, and a mixed solution of the acceptor and the donor was prepared with a reaction buffer so as to be a donor-derived radioactivity of 16,000 dpm/400 µL and a acceptor-derived radioactivity of 4,000 dpm/400 µL. 400 µL of the mixed solution of the donor and the acceptor, 45 µL of the reaction buffer, 50 µL of MTP (20 µg/mL), and 5 µL of a sample dissolved in DMSO (dimethyl sulfoxide) or 5 µL of DMSO was mixed (total amount: 500 µL). The mixture was incubated at 37 °C for 1.5 hours. […] The radioactivity in the acceptor was measured by liquid scintillation counter. The value obtained by subtracting the radioactivity in a blank group from the radioactivity in the acceptor of a DMSO group was determined as MTP-mediated TG transfer activity, and it was compared with the value obtained by subtracting the radioactivity in the blank group from the radioactivity in a sample group. […] Inhibition rate (%) was calculated from values obtained according to the following equation. Inhibition rate(%) = (1 minus ((radioactivity of sample group minus radioactivity of blank group)/(radioactivity of DMSO group minus radioactivity of blank group))) × 100.

Compound `COC(=O)c1ccc(OC(=O)CCCc2ccc(NC(=O)c3ccc(C)cc3-c3ccc(C(F)(F)F)cc3)c(C(=O)N(C)C)c2)cc1` [Compound 1-9, 4-(4-{3-dimethylcarbamoyl-4-[(5-methyl-4'-trifluoromethylbiphenyl-2-carbonyl)amino]phenyl}butyryloxy) benzoic acid methyl ester] has a remaining at 10 min [1] of 0%, a remaining at 1 h [1] of 0% and a remaining at 10 min [2] of 94%. For the same compound, the remaining at 1 h [2] was 97%, the remaining at 10 min [3] was 34% and the remaining at 1 h [3] was 0%. The “Human intestine MTP (IC50(nM))” value [4] was “++ +”.
`CCOC(=O)c1cc(OC)c(OC(=O)CCCc2ccc(NC(=O)c3ccc(C)nc3-c3ccc(C(F)(F)F)cc3)c(C(=O)N(C)C)c2)c(C(=O)OC)c1` [Compound 1-54, 4-[4-(3-dimethylcarbamoyl-4-{[6-methyl-2-(4-trifluoromethylphenyl)pyridine-3-carbonyl]amino}phenyl)butyryloxy]-5-methoxyisophthalic acid 1-ethyl ester 3-methyl ester] gave a remaining at 10 min [1] of 10%, a remaining at 1 h [1] of 2% and a remaining at 10 min [2] of 97%. For the same compound, the remaining at 1 h [2] was 105%, the remaining at 10 min [3] was 0% and the remaining at 1 h [3] was 0%. For the same compound, the “Human intestine MTP (IC50(nM))” value [4] was “+ ++”.
With `COC(=O)c1ccc(OC(=O)CCCc2ccc(NC(=O)c3ccc(C)nc3-c3ccc(C(F)(F)F)cc3)c(C(=O)N(C)C)c2)c(C(=O)OC)c1` [Compound 1-70, 4-[4-(3-dimethylcarbamoyl-4-{[6-methyl-2-(4-trifluoromethylphenyl)pyridine-3-carbonyl]amino}phenyl)butyryloxy]isophthalic acid dimethyl ester] the remaining at 10 min [1] was 0%, the remaining at 1 h [1] was 0% and the remaining at 10 min [2] was 101%. It also gave a remaining at 1 h [2] of 104%, a remaining at 10 min [3] of 0% and a remaining at 1 h [3] of 0%. For the same compound, the “Human intestine MTP (IC50(nM))” value [4] was “+ ++”.
For `COC(=O)c1ccc(OC(=O)C2CCN(c3ccc(NC(=O)c4ccccc4-c4ccc(C(F)(F)F)cc4)c(C(=O)N(C)C)c3)CC2)c(F)c1` [Compound 3-2, 1-{3-dimethylcarbamoyl-4-[(4'-trifluoromethylbiphenyl-2-carbonyl)amino]phenyl}piperidine-4-carboxylic acid 2-fluoro-4-methoxycarbonylphenyl ester], the remaining at 10 min [1] was 2%, the remaining at 1 h [1] was 0% and the remaining at 10 min [2] was 94%. For the same compound, the remaining at 1 h [2] was 97%, the remaining at 10 min [3] was 24% and the remaining at 1 h [3] was 0%.
With `COC(=O)c1ccc(-c2nc(C)ccc2C(=O)Nc2ccc(CCCC(=O)Oc3c(C)cc(C(=O)OC)cc3Cl)cc2C(=O)N(C)C)cc1` [Compound 4-1, 3-chloro-4-[4-(3-dimethylcarbamoyl-4-{[2-(4-methoxycarbonylphenyl)-6-methylpyridine-3-carbonyl]amino}phenyl)butyryloxy]-5-methylbenzoic acid methyl ester] the remaining at 10 min [1] was 0%, the remaining at 1 h [1] was 0% and the remaining at 10 min [2] was 99%. For the same compound, the remaining at 1 h [2] was 101%, the remaining at 10 min [3] was 25% and the remaining at 1 h [3] was 0%.
Compound `COC(=O)c1ccc(-c2nc(C)ccc2C(=O)Nc2ccc(CCCC(=O)Oc3c(C)cc(C(=O)OC)cc3C(=O)OC)cc2C(=O)N(C)C)cc1` [Compound 4-2, 4-[4-(3-dimethylcarbamoyl-4-{[2-(4-methoxycarbonylphenyl)-6-methylpyridine-3-carbonyl]amino}phenyl)butyryloxy]-5-methylisophthalic acid dimethyl ester] has a remaining at 10 min [1] of 2%, a remaining at 1 h [1] of 0% and a remaining at 10 min [2] of 98%. For the same compound, the remaining at 1 h [2] was 97%, the remaining at 10 min [3] was 34% and the remaining at 1 h [3] was 0%.
Work on `COC(=O)c1ccc(OC(=O)CCCc2ccc(NC(=O)c3ccccc3-c3ccc(C(=O)OC)cc3)c(C(=O)N(C)C)c2)cc1` [Compound 4-3, 2'-{2-dimethylcarbamoyl-4-[3-(4-methoxycarbonylphenoxycarbonyl)propyl]phenylcarbamoyl}biphenyl-4-carboxylic acid methyl ester] yielded a remaining at 10 min [1] of 1%, a remaining at 1 h [1] of 0% and a remaining at 10 min [2] of 101%. For the same compound, the remaining at 1 h [2] was 102%, the remaining at 10 min [3] was 0% and the remaining at 1 h [3] was 0%.
In the case of `COC(=O)c1ccc(-c2nc(C)ccc2C(=O)Nc2ccc(CCCC(=O)Oc3c(Cl)cc(C(=O)OC)cc3OC)cc2C(=O)N(C)C)cc1` [Compound 4-4, 3-chloro-4-[4-(3-dimethylcarbamoyl-4-{[2-(4-methoxycarbonylphenyl)-6-methylpyridine-3-carbonyl]amino}phenyl)butyryloxy]-5-methoxybenzoic acid methyl ester], the remaining at 10 min [1] is reported as 4%, the remaining at 1 h [1] is reported as 0% and the remaining at 10 min [2] is reported as 99%. The remaining at 1 h [2] was 97%, the remaining at 10 min [3] was 0% and the remaining at 1 h [3] was 0%.
